Assay results: ChEMBL document CHEMBL1132727, “A novel pyridazinone derivative as a nonprostanoid PGI2 agonist” (Bioorg Med Chem Lett, 2000)
pIC50, pKi: −log10 of the molar value.

Legend:
Homo sapiens = species: Homo sapiens; assay: Tested for Concentration required for the inhibition of ADP-induced aggregation of human platelets; assay type: functional
[1] = Half-life after intravenous administration in female rat; assay type: ADME, organism-based; details: in vivo
[2] = Half-life after intravenous administration in male rat; assay type: ADME, organism-based; details: in vivo
Prostacyclin receptor = Prostacyclin receptor (Homo sapiens, UniProt P43119); assay: Tested for inhibition of 3[H]-iloprost binding to human IP receptor
Chain of Prostacyclin receptor (P43119 whole entry): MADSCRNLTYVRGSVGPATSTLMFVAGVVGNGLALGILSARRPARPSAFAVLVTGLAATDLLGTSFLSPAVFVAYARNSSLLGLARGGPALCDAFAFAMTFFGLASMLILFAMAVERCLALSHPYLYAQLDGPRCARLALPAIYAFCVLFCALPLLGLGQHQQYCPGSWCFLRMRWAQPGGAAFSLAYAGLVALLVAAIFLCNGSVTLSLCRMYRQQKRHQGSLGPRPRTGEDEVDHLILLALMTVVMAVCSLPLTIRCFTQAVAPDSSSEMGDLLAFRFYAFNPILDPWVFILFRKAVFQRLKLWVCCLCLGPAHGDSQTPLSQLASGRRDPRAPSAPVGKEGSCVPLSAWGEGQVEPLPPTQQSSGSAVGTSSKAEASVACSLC

[3] = Oral Bioavailability after administration of 10 mg/kg in male rat; assay type: ADME, organism-based; details: in vivo, read-out: Bioavailabiility
[4] = Half-life after administration of 3.2 mg/kg intravenously in male rat; assay type: ADME, organism-based; design: dose 3.2 mg/kg, route intravenous; details: in vivo, iv

| Structure (SMILES) | pIC50 (Homo sapiens) | pKi (Prostacyclin receptor) | other results |
| --- | --- | --- | --- |
| O=C(O)COc1cccc2c1CC[C@H](Cn1cc(C(c3ccccc3)c3ccccc3)ccc1=O)C2 | 6.89 |  |  |
| O=C(O)COc1cccc2c1CC[C@H](Cn1cccc(C(c3ccccc3)c3ccccc3)c1=O)C2 | < 5.00 |  |  |
| O=C(O)COc1cccc2c1CC[C@H](Cn1nc(C(c3ccccc3)c3ccccc3)ccc1=O)C2 | 7.09 | 7.03 | bioavailability [3]: 56%; half-life [4]: 4.3 h |
| CCC/C(CC1CCc2c(cccc2OCC(=O)O)C1)=N\OC(c1ccccc1)c1ccccc1 (configuration not stated) [AP-227] | 6.82 |  |  |

The next compounds have a higher pIC50 (Homo sapiens) than those just listed; values first:

| pIC50 (Homo sapiens) | pKi (Prostacyclin receptor) | Structure (SMILES) | other results |
| --- | --- | --- | --- |
| 7.39 |  | O=C(O)COc1cccc2c1CCC(Cn1cc(C(c3ccccc3)c3ccccc3)cn1)=C2 |  |
| 8.37 | 7.10 | CC#CCC(C)[C@H](O)/C=C/[C@H]1[C@H](O)CC2Oc3c(CCCC(=O)[O-])cccc3[C@@H]21.[Na+] (some centres not stated) | half-life [1]: 3.3 h; half-life [2]: 0.43 h |
